# Test results from the supplement of paper PMC12420376.
# Experiments:
# KURAMOCHI = assay: drug sensitivity score (DSS2) on cancer cell count; higher = more sensitive; extreme values may be limits of the assay; settings: 72 h
# Procedure, shortened: (§1)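 Ovarian cancer cells were grown alone or in 1:1 direct co-culture with lung or skin fibroblasts. They were plated onto 384-well plates pre-spotted acoustically with 528 approved and investigational compounds at 5 concentrations, then treated for 72 h. Cells were fixed, immunostained for CK8/18 with Hoechst, and imaged at 10× (4 fields) to count cancer cells. A drug sensitivity score (DSS2) was derived in Breeze from 4-parameter logistic fits, with screen quality checked by Z'.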
# OVCAR8 = assay: as above; settings: 72 h
# Procedure, shortened: as §1
# [1] = co-cultured fibroblast: BJHTERT
# [2] = co-cultured fibroblast: none (monoculture)
SMILES,drug sensitivity score (KURAMOCHI; [1]) [DSS],drug sensitivity score (KURAMOCHI; co-cultured fibroblast: WI38) [DSS],drug sensitivity score (KURAMOCHI; [2]) [DSS],drug sensitivity score (OVCAR8; [1]) [DSS],drug sensitivity score (OVCAR8; co-cultured fibroblast: WI38) [DSS],drug sensitivity score (OVCAR8; [2]) [DSS]
Cc1ccc(C(=O)N(CCCN)[C@@H](c2oc3cc(Cl)ccc3c(=O)c2Cc2ccccc2)C(C)C)cc1,8.3,17.2,14.6,5.2,7.6,29.1
CO[C@@H](C(=O)N1Cc2[nH]nc(NC(=O)c3ccc(N4CCN(C)CC4)cc3)c2C1)c1ccccc1 [Danusertib],22.9,20.9,28.6,15,19.2,21
CC(C)Nc1cc(-c2c[nH]c(C(=O)N[C@H](CO)c3cccc(Cl)c3)c2)c(Cl)cn1 [Ulixertinib],9.7,9.6,12.2,8.8,13.9,11
COc1cc2c(cc1OC(C)C)[C@H](c1ccc(Cl)cc1)N(c1ccc(N(C)C[C@H]3CC[C@H](N4CCN(C)C(=O)C4)CC3)cc1)C(=O)C2 [NVP-CGM097],7.7,3.4,5.4,10.1,11.1,3.5
Nc1ccccc1NC(=O)c1ccc(CNC(=O)OCc2cccnc2)cc1 [Entinostat],6,14.3,9.2,8.5,11.7,11.1
Cc1cnc(NC(=O)Nc2cc(Br)c(C)cc2OC[C@@H]2CNCCO2)cn1 [Rabusertib],0.4,0,0,0.2,0,0
O=C(NC1CCNCC1)c1n[nH]cc1NC(=O)c1c(Cl)cccc1Cl [AT7519],17.3,18.8,19.6,21.6,17.5,19.9
CCNC(=O)C[C@@H]1N=C(c2ccc(Cl)cc2)c2cc(OC)ccc2-n2c(C)nnc21 [Molibresib],6.5,9.9,6.7,12.2,5.8,13.6
CN[C@@H]1C[C@H]2O[C@@](C)([C@@H]1OC)n1c3ccccc3c3c4c(c5c6ccccc6n2c5c31)C(=O)N[C@H]4O [UCN-01],17,17.3,22.7,19.6,14.3,17.7
Nc1nccc(-c2c(-c3ccc(F)cc3)ncn2C2CCCCC2)n1,5.1,4,4.1,1.4,0,1.2
CCCc1cc(C)[nH]c(=O)c1CNC(=O)c1cc(-c2ccnc(N3CCN(C)CC3)c2)cc2c1cnn2C(C)C [GSK343],0,0,0,1,0,0
COCCOc1cnc2ccn([C@H](C)c3nnc4c(F)cc(-c5cnn(C)c5)cn34)c(=O)c2c1 [AMG-337],0,0,0,0,0,0
CC(C)C[C@@H](C(=O)N[C@H](C(=O)OC1CCCC1)c1ccccc1)[C@H](O)C(=O)NO [Tosedostat],2,1.3,2.1,14.5,11.4,6.5
COc1cc2nccc(Oc3ccc(NC(=O)Nc4cc(C)on4)c(Cl)c3)c2cc1OC [Tivozanib],5.7,3.8,0.4,2.8,8.9,4.9
CC(C)Cn1cnc2c(N)nc3ccccc3c21 [Imiquimod],0,0.1,13.4,0.4,0,2.8
CN1C(=O)N[C@H](Cc2c[nH]c3c(Cl)cccc23)C1=O [Necrostatin 2],0,0,0,0,0,0
CC(C)C(=O)Nc1ccc([N+](=O)[O-])c(C(F)(F)F)c1 [Flutamide],0,1.3,0,0,0,0
CNc1ncc2cc(-c3cc(NC(=O)NCCC(C)(C)C)c(F)cc3C)c(C)nc2n1,12.7,10.2,9.9,13.1,15.7,14.7
Cn1c(Nc2ccc(C(F)(F)F)cc2)nc2cc(Oc3ccnc(-c4ncc(C(F)(F)F)[nH]4)c3)ccc21 [NVP-RAF265],2.2,0.8,7.6,2.2,0,3.2
CCc1c(C(=O)C(N)=O)c2c(OCC(=O)O)cccc2n1Cc1ccccc1 [Varespladib],0,0,0,0,0,3.4
CCCOc1ccn2c(C(C)=O)cc(-c3ccccc3S(C)(=O)=O)c2c1 [GSK2801],0,0,0.9,0,0,0
O=C(O)c1ccc(O)c2ncccc12 [IOX-1],3.6,5.9,5.5,3.4,0.7,4.8
C[C@@H](C(=O)O)c1ccc(-c2ccccc2)c(F)c1 [Tarenflurbil],0,0,0,0.7,0,0
Cc1cc(Nc2nc(N[C@@H](C)c3ncc(F)cn3)ncc2Cl)[nH]n1 [AZD1480],0.1,0.7,0,0.4,0,0.4
CC1(C)C(C(=O)Nc2ccc(S(=O)(=O)c3ccc(NC(=O)C4C(C)(C)C4(C)C)cc3)cc2)C1(C)C [BRD7116],0.5,1.9,0,0,0,0
CCN(CC)CCNC(=O)c1c(C)[nH]c(/C=C2\C(=O)Nc3ccc(F)cc32)c1C [Sunitinib],0,0,3.2,0.7,0,0
O=C(NOCCO)c1ccc2cncn2c1Nc1ccc(I)cc1F [GDC-0623],0,0,18.9,7.5,0,19.2
COc1cc2c(N3CCN(C(=O)Nc4ccc(OC(C)C)cc4)CC3)ncnc2cc1OCCCN1CCCCC1 [Tandutinib],0,0,0,0,0,0
